# Experimental data as given in paper PMC13586173, “Synthetic cannabinoid receptor agonists inhibit the cardiac voltage-gated potassium channel hERG” (Acta Pharmacologica Sinica, 2026).
# Where two headings read alike, the source gives them in different places.
# Key:
# hERG (KV11.1) = hERG (KV11.1) (Homo sapiens, UniProt Q12809); assay: Automated planar patch-clamp (APC, QPatch II 48), voltage-ladder protocol, CHO cells stably expressing human hERG; details: for hERG channel Efficacy (max reduction in Gmax) Gmin: 0 = complete reduction; for effect on Gmax of hERG (in words): APC concentration-response, 1.11 to 30 µM
# Source text: To assess the effect of a large set of SCRAs on hERG (see SI Table I and SI Fig. S1 for a list of the 36 included SCRAs and corresponding structures), we used the automated planar patch-clamp (APC) technique on mammalian Chinese hamster ovary (CHO) cells stably expressing human hERG. […] We employed a voltage-ladder protocol to obtain information on SCRA effects on the channel’s voltage dependence of activation (V50) and maximal conductance (Gmax) (both determined from Boltzmann fits of the instantaneous tail currents; see Methods for details).
# Stably expressing cell lines “CHO-hERG DUO” (here referred to as hERG; gene: KCNH2) and “CHO-KVLQT1/mink” (here referred to as KV7.1/KCNE1; gene: KCNQ1/KCNE1), (B’SYS GmBH, Witterswil, Switzerland) were used to study whole-cell K^+ currents on a QPatch II 48 APC system (Sophion Bioscience A/S, Ballerup, Denmark). Cell culture and passaging were performed in accordance with standard operating procedures. Cells were harvested in serum-free medium with Detachin^TM (Genlantis, CA, USA) immediately prior to experiments. For MPC on transient cell lines, CHO-K1 CCL-61 cells (ATCC, Manassas, VA, USA) were cultured in Ham’s F-12 medium supplemented with 10% fetal bovine serum (FBS) and 100 U/mL penicillin–100 µg/mL streptomycin (Gibco, Thermo Fisher Scientific, Waltham, MA, USA). Transfection was carried out using JetOPTIMUS® reagent (Polyplus, Strasbourg, France) according to the manufacturer’s protocol. Briefly, 80,000 cells were seeded per well in a 12-well plate and transfected with 300 ng of pcDNA3-GFP plasmid, 700 ng of pcDNA3-hERG plasmid with either the wild-type or mutant channels (S624A, S649A, or Y652A), and […] of JetOPTIMUS. After 8 h, cells were detached and reseeded at a density of 30,000 cells per well onto several poly-D-lysine-coated glass coverslips placed in a 12-well plate. For the CB1 receptor activity assay, the AequoScreen® recombinant Chinese hamster ovary (CHO) K1 cell line, stably expressing the human CB1 receptor (ES-110-A), was used (Revvity, Sollentuna, Sweden).
# Automated patch-clamp recordings were performed at 22 °C. Freshly harvested cell suspensions (2–3 million cells/mL) were prepared for experiments by the QPatch II 48 automated cell preparation unit. Cells were centrifuged for 150 s at 150 × g and washed twice with the extracellular recording solution. Cells were handled by the integrated pipetting robot and added to the 48 experiment sites on the planar patch-clamp consumable QPlate. Each experiment site contained an individual pair of recording electrodes and a silicon/glass biochip embedded in the flow channels. Single-cell patch recordings (n = 1 is defined as one single-cell patch) and population patch recordings (up to 10 cells per well, n = 1 is defined as one population patch) were performed for hERG and for KV7.1/KCNE1, respectively. Cells were applied, positioned and sealed to the patch holes by a mild suction protocol; whole-cell access was then achieved by a stronger suction pulse.
# The intracellular solution contained (in mM): 100 KCl, 4.3 CaCl2, 1.4 MgCl2, 25/10 KOH/EGTA, 24 KF, 10 HEPES, and 4 Mg-ATP (hERG) or 4 Na-ATP (KV7.1/KCNE1). […] The compounds were pre-diluted in DMSO, and the final concentration of DMSO (0.3%) was equal in all recording solutions to control for vehicle effects. The compounds made no contact with plastics following dilution in extracellular solution.
# An overview of experimental conditions is provided in SI Table VII, Square voltage pulses in a voltage ladder protocol were used to study current/voltage (I(V)) relationships. Each voltage protocol was first run three times in the presence of vehicle (extracellular solution supplemented with 0.3% DMSO), the 3rd serving as the baseline. Voltage protocols were repeated in the presence of 4 cumulatively rising concentrations of test compound, followed by application of vehicle for recovery.
# KV7.1/KCNE1 = KV7.1/KCNE1 (Homo sapiens, UniProt P51787); assay: Automated patch-clamp (APC, population patch), CHO cells stably expressing human KV7.1/KCNE1; type: cell-based; details: for KV7.1/KCNE1 channel Efficacy (max reduction in Gmax) Gmin: best fit, 1 = no reduction of Gmax, 0 = complete reduction; for Gmax effect on hERG versus KV7.1/KCNE1 (in words): both channels by APC; for KV7.1/KCNE1 channel Efficacy (max reduction in Gmax) Gmin, marked *: * Greatest efficacy achieved with a concentration between 10 and 30 µM (no fit)
# Method: Both hERG and KV7.1/KCNE1 contribute to cardiomyocyte repolarization (Fig. 1g). Inhibition of KV7.1/KCNE1 alone can be proarrhythmic. Moreover, under conditions with impaired hERG function, upregulation of KV7.1/KCNE1 has been proposed to partially compensate for the loss of hERG [38, 39]. […] To assess if SCRAs also affect KV7.1/KCNE1, we used mammalian CHO cells stably expressing human KV7.1/KCNE1. […] At 10 µM, 7 of the SCRAs caused a significant positive shift in V50 (Fig. 5e), with the largest shift induced by MDMB-[…] (ΔV50 = +10.3 ± 1.6 mV).
# Automated patch-clamp recordings were performed at 22 °C.
# For the KV7.1/KCNE1 voltage ladder protocol (SI Table VII) the solutions were present for 60 s before recording started. KV7.1/KCNE1 cells were kept at a holding voltage of −90 mV, with brief hyperpolarizing steps to −100 mV for 540 ms (to calculate ohmic leakage). […] The time between compound application and the first voltage protocol was 60 s. Time between sweeps was 15 s. The voltage ladder protocol was executed every 220 s.
# For Gmax (rel.), N was set to –1. For ΔV50, N was set to 1.
# [1] = rats; cited from earlier work
# human CB1 receptor = biological target: T1, human CB1 receptor (Homo sapiens, UniProt P21554); assay: AequoScreen intracellular calcium release assay, CHO-K1 cells stably expressing CB1; type: cell-based; details: for CB1 receptor Efficacy Emax: normalized to maximum of JWH-018
# T1 construct: host or cells: CHO-K1 stably expressing CB1, apoaequorin and Gα16
# hERG [2] = details: cited from earlier work
# hERG [3] = details: cited from earlier work; remark: listed apart in the source
# [4] = best fit, 1 = no reduction of Gmax, APC, 22 °C
# [5] = experimentally observed effect of 10 µM, used in ORd simulation
# [6] = CB1 receptor Potency EC50, normalized to median EC50 of JWH-018, n ≥ 3 (JWH-030 n = 2)
# T1 sequence (P21554 whole entry): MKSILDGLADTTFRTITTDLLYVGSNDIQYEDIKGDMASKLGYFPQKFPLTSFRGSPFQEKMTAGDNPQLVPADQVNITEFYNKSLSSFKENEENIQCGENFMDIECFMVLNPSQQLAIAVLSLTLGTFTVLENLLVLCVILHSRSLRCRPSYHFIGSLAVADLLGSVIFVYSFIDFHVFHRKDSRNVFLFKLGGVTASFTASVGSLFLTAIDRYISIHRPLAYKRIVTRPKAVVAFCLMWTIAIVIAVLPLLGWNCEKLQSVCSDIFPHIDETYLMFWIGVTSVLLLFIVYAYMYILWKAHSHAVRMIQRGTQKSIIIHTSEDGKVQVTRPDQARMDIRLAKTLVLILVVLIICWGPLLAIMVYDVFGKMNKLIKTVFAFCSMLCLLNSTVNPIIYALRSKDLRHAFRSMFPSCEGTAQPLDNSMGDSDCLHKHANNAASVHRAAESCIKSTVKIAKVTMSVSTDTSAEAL
# KV7.1/KCNE1, sequence (P51787 whole entry): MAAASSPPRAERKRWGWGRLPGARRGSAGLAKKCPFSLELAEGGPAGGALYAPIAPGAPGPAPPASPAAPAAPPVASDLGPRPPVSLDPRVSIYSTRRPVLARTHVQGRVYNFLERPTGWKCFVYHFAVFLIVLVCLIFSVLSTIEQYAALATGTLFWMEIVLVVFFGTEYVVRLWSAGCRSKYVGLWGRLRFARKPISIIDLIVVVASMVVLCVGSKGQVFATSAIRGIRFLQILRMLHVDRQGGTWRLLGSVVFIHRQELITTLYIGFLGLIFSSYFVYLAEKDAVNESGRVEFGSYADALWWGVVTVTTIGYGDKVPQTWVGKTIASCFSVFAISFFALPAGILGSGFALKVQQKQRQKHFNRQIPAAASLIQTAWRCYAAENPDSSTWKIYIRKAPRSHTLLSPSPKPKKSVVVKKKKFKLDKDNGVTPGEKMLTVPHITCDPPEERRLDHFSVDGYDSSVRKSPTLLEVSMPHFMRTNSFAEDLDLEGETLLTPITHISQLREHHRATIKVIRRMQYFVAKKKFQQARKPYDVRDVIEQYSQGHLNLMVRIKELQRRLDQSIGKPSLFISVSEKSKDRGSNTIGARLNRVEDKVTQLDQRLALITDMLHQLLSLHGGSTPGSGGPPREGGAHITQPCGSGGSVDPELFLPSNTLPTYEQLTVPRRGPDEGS
# hERG (KV11.1), sequence (Q12809 whole entry): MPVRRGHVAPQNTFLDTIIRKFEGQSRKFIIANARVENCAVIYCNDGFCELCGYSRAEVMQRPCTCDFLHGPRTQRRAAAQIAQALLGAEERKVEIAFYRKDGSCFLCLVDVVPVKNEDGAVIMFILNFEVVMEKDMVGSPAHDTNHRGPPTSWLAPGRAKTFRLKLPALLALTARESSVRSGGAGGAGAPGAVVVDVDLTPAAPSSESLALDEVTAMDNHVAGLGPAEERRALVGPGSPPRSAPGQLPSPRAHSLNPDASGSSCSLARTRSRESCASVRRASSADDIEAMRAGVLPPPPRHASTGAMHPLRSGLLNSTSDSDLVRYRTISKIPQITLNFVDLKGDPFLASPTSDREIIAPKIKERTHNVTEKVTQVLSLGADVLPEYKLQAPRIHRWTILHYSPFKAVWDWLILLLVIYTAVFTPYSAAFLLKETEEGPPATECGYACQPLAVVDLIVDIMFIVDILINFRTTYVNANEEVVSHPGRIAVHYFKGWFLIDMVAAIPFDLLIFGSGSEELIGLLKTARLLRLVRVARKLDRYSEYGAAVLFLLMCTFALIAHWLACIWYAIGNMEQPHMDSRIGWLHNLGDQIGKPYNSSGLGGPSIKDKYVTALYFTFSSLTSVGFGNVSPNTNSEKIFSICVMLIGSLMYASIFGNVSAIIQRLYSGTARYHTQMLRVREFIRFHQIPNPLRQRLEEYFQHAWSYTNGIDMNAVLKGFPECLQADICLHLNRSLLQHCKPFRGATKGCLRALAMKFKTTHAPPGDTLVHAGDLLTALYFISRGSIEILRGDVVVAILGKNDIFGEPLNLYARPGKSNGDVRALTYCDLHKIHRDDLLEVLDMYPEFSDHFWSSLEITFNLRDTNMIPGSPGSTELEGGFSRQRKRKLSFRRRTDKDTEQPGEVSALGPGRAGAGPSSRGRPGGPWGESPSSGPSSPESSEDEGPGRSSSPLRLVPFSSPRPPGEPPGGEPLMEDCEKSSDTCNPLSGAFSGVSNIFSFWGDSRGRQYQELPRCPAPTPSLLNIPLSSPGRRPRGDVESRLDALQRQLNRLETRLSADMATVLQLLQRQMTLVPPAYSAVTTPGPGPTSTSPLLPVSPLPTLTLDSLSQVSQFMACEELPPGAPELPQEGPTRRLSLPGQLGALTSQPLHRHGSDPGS
SMILES,IC50 (hERG (KV11.1)),hERG channel Efficacy (max reduction in Gmax) Gmin (hERG (KV11.1); [4]),EC50 (human CB1 receptor; [6]),CB1 receptor Efficacy Emax (human CB1 receptor; n ≥ 3 (JWH-030 n = 2)),effect on Gmax of hERG (in words) (hERG (KV11.1)),"KV7.1/KCNE1 channel Efficacy (max reduction in Gmax) Gmin, marked * (KV7.1/KCNE1)",other results
CCCCCn1ccc(C(=O)c2cccc3ccccc23)c1 [JWH-030],23.1 µM,0.00,0.291 µM,76.5 % JWH-018,,,"remaining IKr (hERG Gmax) (hERG (KV11.1); [5]): 74%; IC50 (KV7.1/KCNE1): 12.2 µM; effect on KV7.1/KCNE1 (in words) (KV7.1/KCNE1; APC): largest reduction in Gmax; KV7.1/KCNE1 channel Efficacy (max reduction in Gmax) Gmin (KV7.1/KCNE1): 0; remaining IKs (KV7.1/KCNE1 Gmax) (KV7.1/KCNE1; [5]): 49%; QT interval (in words) [1]: prolongs the QT interval in rats; hERG inhibition (in words) (hERG [2]): inhibits the voltage-gated potassium channel hERG; IC50 (hERG [2]; read-out: in vitro hERG IC50, test pulse 1 s): 88.4 µM"
O=C(NC12CC3CC(CC(C3)C1)C2)c1nn(CCCCCF)c2ccccc12 [5F-APINACA],> 100 µM,,0.0166 µM,102 % JWH-018,inhibitory effects on Gmax,,"hERG channel Efficacy (max reduction in Gmax) Gmin, marked ? (hERG (KV11.1); ? Unreliable values (fit failed QC, extrapolated)): 0.00; IC50 (KV7.1/KCNE1): 35.1 µM; Gmax effect on hERG versus KV7.1/KCNE1 (in words) (KV7.1/KCNE1; 10 µM): only on KV7.1/KCNE1; KV7.1/KCNE1 channel Efficacy (max reduction in Gmax) Gmin (KV7.1/KCNE1): 0; hERG inhibition (in words) (hERG [3]): inhibit hERG; IC50 (hERG [3]; read-out: hERG IC50, HEK293 cells, 37 °C): 2.2 µM"
CC(C)(C)[C@H](NC(=O)Cc1cn(Cc2ccc(F)cc2)c2ccccc12)C(N)=O [ADB-FUBIATA],,,,,,,hERG inhibition (in words) (hERG [3]): inhibit hERG
Cc1ccc(S(=O)(=O)n2nc(C(=O)NC(C)(C)c3ccccc3)c3ccccc32)cc1 [Cumyl-TsINACA],,,,106 % JWH-018,non-inhibitor,1.07,"hERG channel Efficacy (max reduction in Gmax) Gmin, marked * (hERG (KV11.1); * Greatest efficacy achieved with a concentration between 10 and 30 µM (no fit), 1 = no reduction of Gmax): 0.94; EC50 (human CB1 receptor; read-out: CB1 receptor Potency EC50): 0.166 µM"
COC(=O)C(NC(=O)c1nn(CC2CCCCC2)c2ccccc12)C(C)(C)C (stereo not shown) [MDMB-[…]],12.4 µM,0.60,0.0014 µM,106 % JWH-018,,0.52,ΔV50 of KV7.1/KCNE1 (KV7.1/KCNE1; 10 µM): +10.3 ± 1.6 mV
O=C(c1cccc2ccccc12)c1cn(CCCCCF)c2ccccc12 [AM-2201],,0.38,,99.7 % JWH-018,,0.92,"IC50 (hERG (KV11.1); read-out: hERG channel Potency IC50 (Gmax reduction), APC, 22 °C, best fit): 1.3 µM; Gmax effect on hERG versus KV7.1/KCNE1 (in words) (KV7.1/KCNE1; 10 µM): effects only on hERG; EC50 (human CB1 receptor; normalized to median EC50 of JWH-018, n ≥ 3 (JWH-030 n = 2), read-out: CB1 receptor Potency EC50): 0.0258 µM"
COC(=O)C(NC(=O)c1cn(CC2CCCCC2)c2ccccc12)C(C)(C)C (stereo not shown) [MDMB-CHMICA],3.2 µM,0.55,0.00307 µM,107 % JWH-018,clear inhibiting Gmax effects on hERG,0.78,
